According to article PMC12529149, “Chemical and Antiplasmodial Investigations on Carapa-Derived Gedunin Derivatives and Semisynthetic 6- and 7‑Substituted Gedunin Analogues from the Brazilian Amazon” (ACS Omega, 2025):
“And” between values parts separate entries of the source, which are not always exact repeats. Identical values can stand only once. Counter-ions that a name gives are not always drawn. Like-named read-outs stand apart in the source and are kept apart here.

Key:
Plasmodium berghei = conditions: oral, 50 mg/kg/day together with dillapiole 25 mg/kg/day (binary treatment), mice; ref literature (numbers not shown); cited from earlier work
P. falciparum = tested on: P. falciparum; parameters: method as in literature (number not shown); conditions: strain not stated, ref literature (number not shown), cited from earlier work
[1] = parameters: method as in literature (number not shown); conditions: low pH similar to mouse and human stomachs; ref literature (number not shown); cited from earlier work
P. falciparum W2 strain = tested on: P. falciparum W2 strain; parameters: method as in literature (numbers not shown); conditions: ref literature (numbers not shown); cited from earlier work
P. falciparum D6 strain = tested on: P. falciparum D6 strain; parameters: method as in literature (numbers not shown); conditions: ref literature (numbers not shown); cited from earlier work
[2] = tested on: P. falciparum FCR3 strain; parameters: method as in literature (numbers not shown); conditions: ref literature (numbers not shown); cited from earlier work
[3] = tested on: mouse mammary carcinoma (FM3A) cell cultures; parameters: method as in literature (number not shown); conditions: ref literature (number not shown); cited from earlier work
[4] = tested on: K1 strain of Plasmodium falciparum; assay: In vitro susceptibility assay (microtest), P. falciparum K1 growth inhibition; format: cell-based
Procedure: In vitro culture of the K1 strain of P. falciparum (MRA-159, MR4, ATCC, Manassas, Virginia, USA) proceeded following an established method with modifications. Briefly, this method involved the growth of parasites in human type A+ red blood cells and RPMI 1640 medium supplemented with 10% type A+ human plasma at 37 °C under an atmosphere of 5% O2, 5% CO2, and 90% N2.
As initial condition for the susceptibility assay, cultures were synchronized by treatment with 5% D-sorbitol, which provided young trophozoites (ring stages). Performance of the microtest followed a previously described procedure with modifications. Compounds were dissolved in DMSO with the aid of an ultrasound bath to provided stock solutions. […] These diluted samples were evaluated in duplicate in a 96-well test plate. A suspension of parasitized red blood cells (pRBCs) at 2% hematocrit and 1% parasitemia was added to each well. Microplate incubation proceeded for 48 h at 37 °C under the same atmosphere used for parasite culture in two independent experiments conducted on different days. Control wells contained chloroquine (0.003–2.5 μg/mL) and quinine (0.003–2.5 μg/mL). Six (6) control (blank) wells were prepared with pRBCs suspension. Six cosolvent control wells were prepared with 1% DMSO and pRBCs suspension. An average of these 12 controls defined drug-free (untreated) growth. After the incubation period, thin blood smears of the contents of each well were prepared on microscope slides. Optical microscopy was used to analyze the blood smears and establish the parasitemia of each well. Interpolation of the nonlinear curve using GraphPad Prism permitted the calculation of estimates of the sample concentrations able to inhibit 50% of parasite growth (IC50) compared to drug-free controls.

[5] = tested on: variety of P. falciparum strains; conditions: cited from earlier work
P. falciparum K1 strain = tested on: P. falciparum K1 strain; parameters: method as in earlier work; conditions: ref previous reports incl. authors' earlier work (numbers not shown); cited from earlier work
[6] = tested on: P. falciparum K1 strain vs MRC-5 human fibroblasts; assay: Selectivity index, IC50 (human fibroblasts) ÷ IC50 (P. falciparum); format: cell-based, Plasmodium falciparum
Source text: Calculation of the selectivity index (SI) using the following formula afforded the relative toxicity of each sample to human fibroblasts and to P. falciparum blood stages: SI = IC50 (human fibroblasts) ÷ IC50 (P. falciparum).

MRC-5 human fibroblasts = assay: Cytotoxicity/cell viability assay (Alamar blue); format: cell-based; conditions: read-out: fibroblasts IC50
Procedure: Medical Research Council cell strain 5 (MRC-5) human fetal fibroblasts were cultivated in Dulbecco′s modified Eagle’s medium (DMEM) supplemented with 10% bovine fetal serum and 1% antibiotic at 37 °C under an atmosphere of 5% CO2. Cell viability assessment relied on the Alamar blue method. […] Doxorubicin at concentrations of 0.312, 0.625, 1.25, 2.50, 5.00, 10.0, and 20.0 μM was used as a positive control for cell death. The negative control wells received DMSO (sample diluent) at 0.1%. In preparation for the assay, this method involved plating 0.5 × 10^4 cells/well on 96 well test plates and incubating for 24 h under the same conditions used for cell culture. This initial 24 h period was necessary for cell adhesion. The assay consisted of triplicate addition of diluted samples and controls to wells followed by 48 h of incubation. For quantification of viable cells, 10 μL of 0.4% Alamar blue (Sigma-Aldrich)–which works out to an in-well concentration of 0.02%–were added to each well 3 h before the end of the treatment. Alamar blue was allowed to react for 3 h followed by quantification of the optical density (OD) of each well at an excitation wavelength of 465 nm and emission wavelength of 540 nm using an ELISA plate reader (DTX-800, Beckman Coulter). Comparison of individual sample viability OD to that of controls (blanks) afforded the cell viability. Interpolation of the nonlinear curve using GraphPad Prism software permitted the calculation of estimates of the sample IC50 values compared to drug-free controls.

[7] = Plasmodium falciparum, K1, 48 h, read-out: P. falciparum IC50 (CI95), K1 strain, 48 h, CI95 in brackets
[8] = Plasmodium falciparum, K1, 48 h, K1 strain, 48 h, CI95 in brackets, read-out: P. falciparum IC50 (CI95)
[9] = MRC5, MRC-5, tested at 50 μg/mL for 48 h

Row | Compound | selectivity index (SI) [6] | IC50 [4, 8] | IC50 (MRC-5 human fibroblasts; [9]) [µM] | also measured
1 | 7-deacetyl-7α-methoxygedunin [reference compound] |  |  |  | suppression of P. berghei vs untreated controls (Plasmodium berghei): 68–81%; IC50 (P. falciparum; read-out: IC50, P. falciparum in vitro): 1.6 to 1.7 µM; stability at low pH [1]: good stability at low pH
2 | CC(=O)O[C@@H]1C[C@H]2C(C)(C)C(=O)C=C[C@]2(C)[C@H]2CC[C@@]3(C)[C@H](c4ccoc4)OC(=O)[C@H]4O[C@]43[C@@]21C (single isomer, unassigned) [(−)-gedunin, reference compound] |  |  |  | IC50 (P. falciparum W2 strain): 0.041 to 0.65 µM; IC50 (P. falciparum; 48 h, read-out: IC50 after 48 h): 1 µM; IC50 (P. falciparum; 96 h, read-out: IC50 after 96 h): 0.3 µM; IC50 (P. falciparum D6 strain): 0.081 to 0.63 µM
3 | CC(=O)O[C@H]1[C@@H](O)[C@]2(C)[C@H](CC[C@@]3(C)[C@H](c4ccoc4)OC(=O)[C@H]4O[C@@]423)[C@@]2(C)C=CC(=O)C(C)(C)[C@H]12 [6α-acetoxy-7-deacetylgedunin, reference compound] |  |  |  | IC50 [2]: 4 µM
4 | CC(=O)O[C@H]1[C@@H](OC(C)=O)[C@]2(C)[C@H](CC[C@@]3(C)[C@H](c4ccoc4)OC(=O)[C@H]4O[C@@]423)[C@@]2(C)C=CC(=O)C(C)(C)[C@H]12 [6α-acetoxygedunin] |  |  |  | IC50 [2]: 2.8 µM; toxicity to FM3A cells [3]: toxic
5 | CCN(CC)CCCC(C)Nc1ccnc2cc(Cl)ccc12 (stereo not shown) [chloroquine diphosphate, reference compound] |  |  |  | IC50 ([4]; Plasmodium falciparum, K1, 48 h, read-out: P. falciparum IC50 (CI95)): 0.18 µg/mL and 350 nM
6 | CC1(C)C(=O)C=C[C@]2(C)[C@H]3CC[C@@]4(C)[C@H](c5ccoc5)OC(=O)[C@H]5O[C@]54[C@]3(C)C(=O)C[C@@H]12 [compound 1, 7-Deacetyl-7-oxogedunin] |  |  |  | IC50 (P. falciparum W2 strain): > 20.7 µM; IC50 (P. falciparum D6 strain): > 20.7 µM; IC50 ([5]; FCR3 and INDO strains, ref previous reports (numbers not shown), read-out: IC50): 2.5 to 7.5 µM; toxicity to FM3A cells [3]: toxic
7 | CC1(C)C(=O)C=C[C@]2(C)[C@H]3CC[C@@]4(C)[C@H](c5ccoc5)OC(=O)[C@H]5O[C@]54[C@]3(C)[C@H](O)C[C@@H]12 [compound 2, 7-deacetylgedunin] | >8.5 |  |  | IC50 (P. falciparum K1 strain): 3.1 µM; IC50 [4, 7]: 5.9 µg/mL; IC50 ([4]; read-out: P. falciparum IC50 (CI95), K1 strain, 48 h, CI95 in brackets): 13 µM; IC50 (MRC-5 human fibroblasts; MRC5, 48 h): > 110 µM; IC50 ([5]; variety of strains (3D7, D6, D10, W2, INDO), ref several previous reports (numbers not shown), read-out: IC50, in vitro growth): 1.3 to 5.9 µM; stability at low pH [1]: react at low pH
8 | CC1(C)C(=O)C=C[C@]2(C)[C@H]3CC[C@@]4(C)[C@H](c5ccoc5)OC(=O)[C@H]5O[C@]54[C@]3(C)[C@@H](O)C[C@@H]12 [compound 3, 7-deacetyl-7-epi-gedunin] | >15 |  |  | IC50 [4, 7]: 3.4 µg/mL and 7.8 µM; IC50 (MRC-5 human fibroblasts; MRC5, 48 h): > 110 µM
9 | CC(=O)O[C@H]1C[C@H]2C(C)(C)C(=O)C=C[C@]2(C)[C@H]2CC[C@@]3(C)[C@H](c4ccoc4)OC(=O)[C@H]4O[C@]43[C@]12C [compound 5, 7-epi-gedunin] | >45 | 1.1 µg/mL and 2.3 µM | > 100 | 
10 | CCCC(=O)O[C@@H]1C[C@H]2C(C)(C)C(=O)C=C[C@]2(C)[C@H]2CC[C@@]3(C)[C@H](c4ccoc4)OC(=O)[C@H]4O[C@]43[C@@]21C [compound 6, 7-deacetyl-7-butanoylgedunin] | >21 |  |  | IC50 [4, 7]: 2.4 µg/mL and 4.7 µM; IC50 (MRC-5 human fibroblasts; MRC5, 48 h): > 98 µM
11 | CCCC(=O)O[C@H]1C[C@H]2C(C)(C)C(=O)C=C[C@]2(C)[C@H]2CC[C@@]3(C)[C@H](c4ccoc4)OC(=O)[C@H]4O[C@]43[C@]12C [compound 7, 7-deacetyl-7-butanoyl-7-epi-gedunin] | >21 |  |  | IC50 [4, 7]: 2.4 µg/mL and 4.7 µM; IC50 (MRC-5 human fibroblasts; MRC5, 48 h): > 98 µM
12 | CCCCC(=O)O[C@@H]1C[C@H]2C(C)(C)C(=O)C=C[C@]2(C)[C@H]2CC[C@@]3(C)[C@H](c4ccoc4)OC(=O)[C@H]4O[C@]43[C@@]21C [compound 8, 7-deacetyl-7-pentanoylgedunin] | >12 | 4.2 µg/mL and 8 µM | > 95 | 
13 | CCCCC(=O)O[C@H]1C[C@H]2C(C)(C)C(=O)C=C[C@]2(C)[C@H]2CC[C@@]3(C)[C@H](c4ccoc4)OC(=O)[C@H]4O[C@]43[C@]12C [compound 9, 7-deacetyl-7-pentanoyl-7-epi-gedunin] | >14 | 3.7 µg/mL and 7 µM | > 95 | 
14 | CC1(C)C(=O)C=C[C@]2(C)[C@H]3CC[C@@]4(C)[C@H](c5ccoc5)OC(=O)[C@H]5O[C@]54[C@]3(C)[C@H](O)[C@H](O)[C@@H]12 [compound 10, 7-deacetyl-6α-hydroxygedunin] | >16 | 2.8 µg/mL and 6.1 µM | > 100 | IC50 (P. falciparum K1 strain): 5 µM
15 | CC(=O)O[C@@H]1[C@H](O)[C@H]2C(C)(C)C(=O)C=C[C@]2(C)[C@H]2CC[C@@]3(C)[C@H](c4ccoc4)OC(=O)[C@H]4O[C@]43[C@]12C [compound 11, 6α-hydroxygedunin] | >26 | 2.2 µg/mL and 4.4 µM | > 110 | IC50 [2]: 90 µM
16 | CCCC(=O)O[C@H]1[C@@H](O)[C@]2(C)[C@H](CC[C@@]3(C)[C@H](c4ccoc4)OC(=O)[C@H]4O[C@@]423)[C@@]2(C)C=CC(=O)C(C)(C)[C@H]12 [compound 13, 7-deacetyl-6α-butanoyloxygedunin] | >15 | 3.7 µg/mL and 7.1 µM | > 100 | 
17 | CC1(C)C(=O)C=C[C@]2(C)[C@H]3CC[C@@]4(C)[C@H](c5ccoc5)OC(=O)[C@H]5O[C@]54[C@]3(C)[C@H](O)[C@H](OC(=O)c3ccccc3)[C@@H]12 [compound 14, 7-deacetyl-6α-benzoxygedunin] | >11 | 5.1 µg/mL and 10 µM | > 110 | 
18 | CCCCCCC(=O)O[C@H]1[C@@H](O)[C@]2(C)[C@H](CC[C@@]3(C)[C@H](c4ccoc4)OC(=O)[C@H]4O[C@@]423)[C@@]2(C)C=CC(=O)C(C)(C)[C@H]12 [compound 15, 7-deacetyl-6α-heptanoyloxygedunin] | >9.4 | 5.4 µg/mL and 9.4 µM | > 88 | 
19 | CC1(C)[C@H](O)CC[C@]2(C)[C@H]3CC[C@@]4(C)[C@H](c5ccoc5)OC(=O)[C@H]5O[C@]54[C@]3(C)[C@@H](O)C[C@@H]12 [compound 16, 7-deacetyl-3-deoxo-1,2-dihydro-3α-hydroxy-7-epi-gedunin] | >3.2 | 16 µg/mL | > 110 | 
20 | C=C[C@H]1C[N@@]2CC[C@H]1C[C@H]2[C@H](O)c1ccnc2ccc(OC)cc12 [quinine hydrochloride, reference compound] |  | 0.14 µg/mL and 350 nM |  | 
